One test has as its system prostasin. The settings on record: treatment for 24 h; cited from earlier work.
Test [1] has as its system amiloride-sensitive (sodium-dependent) component of nasal PD. The test can be described thus: Nasal PD measurement during perfusion of human nasal epithelium. Type of test: in vivo. The settings on record: for average percent of maximum PD change in response to 10^−5 M-amiloride: 4 experiments, before perfusion 94% and 80%. The protocol:
The method of measurement of nasal PD was an adaptation of that described by Standaert et al. (2004).
Ringer/HEPES buffer solution was prepared containing 148 mM-NaCl, 4.05 mM-KCl, 1.2 mM-CaCl2, 1.2 mM-MgCl2, 2.4 mM-K2HPO4, 0.4 mM-KH2PO4, 10 mM-HEPES, and adjusted to pH 7.4. Low chloride Ringer/HEPES buffer solution was prepared by replacing NaCl with 148 mM-Na gluconate in the Ringer solution components.
Agar electrodes were prepared with 3.7% agarose dissolved in Ringer/HEPES buffer pH 7.4. The reference electrode was placed and taped in contact with a small area on the forearm where the epidermis had been removed by gentle abrasion. A dual lumen nasal recording electrode was prepared using a lm length of soft plastic tubing 2.4 mm diameter, into which 1 mm diameter polythene tubing was inserted through the wall and along the lumen for 15 cm from one end. The 2.4 mm diameter tubing was filled with 3.7% agarose dissolved in Ringer/HEPES buffer pH 7.4. The 1 mm diameter tubing was used for perfusion of buffer solutions and drugs to the nasal epithelium. The ends of the agar electrodes were each placed in contact with a calomel half-cell in 3 M-KCl solution. Voltages were measured by connecting the calomel electrodes to a high impedance voltmeter (Keithley 617 programmable electrometer). Output from the voltmeter was recorded by connection to a Biopac MP100 data aquisition unit and PC running Acqknowledge III data acquisition software.
Nasal PD was recorded via the recording electrode placed in contact with the nasal epithelium approximately 4 cm inside the nostril. The nasal epithelium was perfused according to the following schedule and nasal PD was recorded continuously.
1. Ringer/HEPES buffer was perfused at 0.5 ml/min for 5 min, and starting baseline PD was recorded.
2. Perfusion was then switched to low chloride Ringer/HEPES buffer pH 7.4 for 30 min during which time initial hyperpolarisation of the epithelium occurred.
3. The nasal epithelium was then perfused with 10^−5 M-amiloride in low chloride Ringer/HEPES buffer pH 7.4 for 10 min. Measurement of the amiloride-sensitive (sodium-dependent) component of nasal PD was then made by measuring the difference between the average PD recorded over the 2 min before perfusion with amiloride and the average PD recorded in the period 4 to 6 min after perfusion with amiloride.
4. Amiloride was washed away from the nasal epithelium by perfusion with low chloride Ringer/HEPES buffer pH 7.4 for 30 min.
5. Steps 3 and 4 were then repeated twice more.
6. The nasal epithelium was then perfused with 3 μM 6-amidino-2-napthyl 4-guanidinobenzoate in low chloride Ringer/HEPES buffer pH 7.4 for 60 min.
7. Steps 3 and 4 were then repeated a further twice, followed by either a period of administration of amiloride (3 experiments), or a final repetition of both steps 3 and 4 (1 experiment).
Over the 5 h time course of each experiment nasal PD drifted and oscillated. […] Changes in nasal PD caused by perfusion of amiloride were calculated as the difference between the mean PD recorded in the 2 min period before perfusion with amiloride and the mean PD recorded in the plateau period 4 to 6 min after start of perfusion with amiloride. Within each experiment the change in nasal PD at each period of application of amiloride was expressed as a percentage of the maximum change observed in the experiment.

Test [2] relates to cystic fibrosis transmembrane regulator (CFTR). The test can be described thus: Short circuit current recording of HBE cells in Ussing chambers (forskolin ΔIsc). Type of test: cell-based, human. The following applies: for effect on forskolin ΔIsc compared to control: 90 min pre-treatment. The protocol:
Differentiated HBE cells grown to confluence at an air-liquid interface for 15 to 29 days were used to study substances for ability to achieve long duration down regulation of the epithelial amiloride-sensitive sodium channel (ENaC).
Step 1: Treatment with substance. For each group of cells treated with a substance, 30 μl of 100 times final concentration of substance was added to the 3 ml basolateral culture medium, mixed and 150 μl of the resultant basolateral fluid was transferred to the apical surface for 5 min. For non-treatment control groups of basolateral fluid with no added substance was transferred to the apical surface. After 5 min. equilibration the excess apical fluid was then transferred back to the basolateral side of the culture well.
Step 2: Variable period of incubation with the substance. Dependent on the individual experiment the cells were returned to the 37° C. incubator for periods of 0 min. to 120 min.
Step 3: Period of substance washout with fresh culture medium. For experiments to study the duration of a substance response the HBE cells on Snapwell inserts were washed with fresh culture medium (no added substance) at 37° C. and placed in fresh 6-well plates containing 3 ml fresh culture medium (no added substance) on the basolateral side. […]
Step 5: Short circuit current (Isc) measurement. […] Silver/silver chloride electrodes (Costar Ltd., UK) were used to monitor Isc, which was recorded continuously throughout each experiment using AcqKnowledge III for MP100WSW data acquisition software (Biopac, Linton Instruments, UK). Transepithelial resistance (RT) was determined every minute by delivering a 5 mV pulse for 3 seconds and recording the change in ISS, over the 3 second period (ΔIsc). RT was calculated using the Ohm's law relationship RT=[V(5 mV)/ΔIsc].
At 37 min. […] The magnitude of the CFTR Isc response to forskolin was determined for each culture by measuring the difference between Isc immediately prior to addition of forskolin and at plateau at approximately 6 min. following addition of the agent (Forskolin ΔIsc)

Test [3] concerns cortical collecting duct of the rabbit kidney. The settings on record: Muto et al. 1993, cited from earlier work.

The source of these data is patent publication US20100092402A1, “TREATMENT OF RESPIRATORY DISEASE” (Mucokinetica Ltd., priority 2007, published 2010).

As to `N=C(N)c1ccc2cc(OC(=O)c3ccc(N=C(N)N)cc3)ccc2c1` [6-amidino-2-napthyl 4-guanidinobenzoate], the “prostasin secretion into culture medium” value with prostasin is reported as “reduced prostasin secretion”. Also, in test [1] (3.10^−6 M in low chloride Ringer/HEPES buffer pH 7.4 for 60 min), the “time following perfusion for which amiloride-sensitive component of nasal PD was reduced” value is given as “up to 80 min”. In addition, the “average percent of maximum PD change in response to 10^−5 M-amiloride” value in test [1] (40 min after perfusion of 3.10^−6 M for 60 min) is on record as 29%; in test [1] (80 min after perfusion of 3.10^−6 M for 60 min), 55%; in test [1] (immediately following 60 min perfusion of 3.10^−6 M), 49%. Besides, the “effect on forskolin ΔIsc compared to control” value is recorded as “no significant effect” in test [2] (1 μM) and “without effect” in test [2] (dose range 30 nM to 3 μM). Moreover, the “forskolin response, treatment vs control” value in test [2] (1 μM, pre-treatment time range 5 min to 60 min) is reported as “No significant difference”. The “effect on the rabbit kidney model” value in test [3] (10^−5 M) was “without effect”. The “change in transepithelial voltage, as share of that achievable by 5.10^−6 M amiloride” value in test [3] (perfused at 10^−4 M) is reported as 40%. Also, the “onset of change in transepithelial voltage” value in test [3] (perfusion of 10^−4 M) is on record as ≤ 30 s.
